Measurements: patent US20120053185A1, “METHOD TO TREAT MELANOMA IN BRAF INHIBITOR-RESISTANT SUBJECTS” (CollabRx Inc., priority 2010, published 2012)

How the values were obtained:
patient's tumor = assay: Case report: patient who became resistant to successive therapies (Example 1); assay type: in vivo, human; settings: single patient
Description: A person had been on multiple lines of therapy, with a response to each, but then becoming resistant. The treatments were as follows:
In July, ipilimumab (a therapy directed at CTLA-4, an inhibitor of the immune system) was started. Sutent® was then administered in addition to the ipilimumab. […] As the patient, however, could not eat, they discontinued the Sutent® and died a few days after this discontinuation.

metastatic melanoma = settings: patients with the mutation, cited from earlier work
[1] = Sutent given in addition to ipilimumab, within a few days

SMILES	abdomen size (patient's tumor; [1])	bowel movements (patient's tumor; [1])	patient's tumor shrank (patient's tumor; first scan after treatment started January 2010) [%]	result of second scan (patient's tumor; second scan April 2010)	response rate (metastatic melanoma; one study) [%]	durability of responses (metastatic melanoma)
CCN(CC)CCNC(=O)c1c(C)[nH]c(/C=C2\C(=O)Nc3ccc(F)cc32)c1C [Sutent®, 5-(5-fluoro-2-oxo-1,2-dihydroindo1-3-ylidenemethyl)-2,4-dimethyl-1H-pyrrole-3-carboxylic acid (2-diethylaminoethyl)amide]	abdomen shrank to normal size	normal bowel movements resumed	–	–	–	–
CCCS(=O)(=O)Nc1ccc(F)c(C(=O)c2c[nH]c3ncc(-c4ccc(Cl)cc4)cc23)c1F [Plexxikon 4032]	–	–	75	recurrence	70	generally does not produce durable responses
